“Also recorded” adds a separate entry of the source.
Key:
[1] = test system: DOCA/saline pre-treated rats with isoproterenol-induced arrhythmia; assay: Arrhythmic reversal studies (established isoproterenol arrhythmia); format: in vivo, rat; settings: i.v. bolus at one-half of the effective s.c. dose, five minutes after isoproterenol
Description: The animals were implanted with a 25 mg pellet of DOCA and maintained on the 1% saline as their drinking fluid as discussed above. The animals were anesthetized with Avertin and prepared for the recording of blood pressure and the EKG. In addition, the animal's left jugular vein was also cannulated with PE-50 tubing. The tubings were filled with saline and exteriorized dorsally between the animal's shoulders. Isoproterenol was administered s.c. at a dose of 150 μg/kg and an arrhythmia was allowed to develop for five minutes. […] Continuous blood pressure, heart rate and EKG readings were obtained. Additional Avertin was given as needed to maintain anesthesia. The hearts of the animals were perfused with buffered formalin immediately after the onset of ventricular fibrillation or one hour after the administration of isoproterenol.
(§1) Two kinds of anti-arrhythmic experiments were carried out, both prophylaxis and reversal studies. DOCA-treated animals were either first given the test compounds s.c. followed twenty minutes later by isoproterenol (prevention studies) or isoproterenol followed by the test compound given intravenously after five minutes (reversal studies). The time frames were chosen based on two issues: previous experience with the pharmacokinetics of polyamine analogues and the time required for isoproterenol to induce cardiac abnormalities and death in DOCA-treated rodents.

[2] = test system: DOCA/saline pre-treated rats challenged with isoproterenol; assay: Prevention of isoproterenol-induced arrhythmia and mortality in DOCA/saline pre-treated rats; format: in vivo, rat; settings: for % SURVIVAL / ARRHYTHMIA (number of animals): 20 min before isoproterenol 150 μg/kg s.c.
Description: Briefly, rats were anesthetized with sodium pentobarbital (55 mg/kg. i.p.), and a 25 mg pellet of desoxycorticosterone acetate (DOCA) was implanted s.c. in the axillary region. The rats were allowed to recover from the anesthetic and returned to their home cages. The animals were given commercial rat chow and a 1% solution of saline as their drinking fluid ad libitum. The animals were maintained on this regimen for approximately thirty days.
Twenty minutes later, the rats were challenged with a single s.c. dose of isoproterenol, 150 μg/kg. The animals were closely monitored for one hour and any obvious arrhythmic episodes or mortalities were recorded.
as §1

[3] = test system: mice exposed to deep chloroform anesthesia; assay: Chloroform anesthesia-induced cardiac arrhythmia (Lawson procedure); format: in vivo; settings: 100 mg/kg i.p., thirty minutes before chloroform; observed 15 minutes; <2 of three = significant protection
Description: In this procedure [Lawson, J. Pharmacol. Exer. Therap., Vol. 160, pages 22-31 (1968)], the test substance [diethylhomospermine (DEHSPM)] is administered i.p. (100 mg/kg) to a group of three mice thirty minutes before exposure to deep chloroform anesthesia and observed during the ensuing 15-minute period.

normotensive rats = settings: earlier results; cited from earlier work
[4] = test system: DOCA/saline pre-treated rats; assay: Evaluation of blood pressure, heart rate and EKG in DOCA/saline rats; format: in vivo, rat; settings: continuous monitoring, compound given s.c.
Description: Blood pressure and heart rate parameters, as well as an EKG, were evaluated for compounds displaying anti-arrhythmic properties. The animals were implanted with DOCA and maintained on 1% saline as their drinking fluid as discussed above. The animals were anesthetized with Avertin (tribromoethanol, 2.5%), 1 ml/100 g given i.p. and prepared for the recording of blood pressure and the EKG. To allow for the direct measurement of blood pressure, the animals's left carotid artery was cannulated with PE-50 tubing. The tubing was filled with saline and exteriorized dorsally between the animal's shoulders.
After the surgery was completed, the catheter in the carotid artery was connected to a blood pressure transducer (ADInstruments, Inc., Milford, Mass.). To allow for the recording of the EKG, 22 gauge needles were placed s.c. at the rat's left shoulder, right shoulder and left leg. The needles were then attached via alligator clips to a MacLab Bio Amplifier (ADInstruments, Inc., Milford, Mass.). […] A baseline blood pressure, heart rate and EKG were obtained, and the compound under investigation was administered s.c. Twenty minutes later, the animals were challenged with a single dose of isoproterenol, 150 μg/kg s.c. Continuous blood pressure, heart rate and EKG readings were obtained. […]

[5] = DOCA/isoproterenol-treated rats, prophylaxis

| Compound | effect on survival / activity in the model (in words) [2, 5] | % SURVIVAL ([2]; dose 115 μmol/kg s.c.) [%] | ARRHYTHMIA (number of animals) ([2]; dose 115 μmol/kg s.c.) | anti-arrhythmic properties (in words) [2, 5] | further results |
| --- | --- | --- | --- | --- | --- |
| CC(C)NCC(O)COc1cccc2ccccc12 (racemic) [Propranolol, d,l-propranolol] |  |  |  |  | EKG pattern after treatment in reversal experiment [1]: reverted to a more normal pattern; evidence of ischemia in EKG in reversal experiment [1]: some evidence of ischemia; survival in reversal experiment [1]: survived |
| CCNCCCCCCCCCNCC [DE(9), C2H5—NH—(CH2)9—NH—C2H5] | no activity | 0 | 5 |  |  |
| CCNCCCCNCCCCNCCCCNCC [DEHSPM(4,4,4), diethylhomospermine] | none of the three polyamine anti-metabolites tested in this model had any effects on the survival | 0 | 5 |  | animals exhibiting cardiac arrhythmia (of three mice) [3]: one; effect on blood pressure (normotensive rats): lower blood pressure |
| CCNCCCNCCCNCCCNCC [DENSPM(3,3,3), diethylnorspermine] | none of the three polyamine anti-metabolites tested in this model had any effects on the survival |  |  |  | % SURVIVAL ([2]; dose 231 μmol/kg s.c.): 0%; ARRHYTHMIA (number of animals) ([2]; dose 231 μmol/kg s.c.): 5; effect on blood pressure (normotensive rats): lower blood pressure |
| CCNCCCNCCCCNCCCNCC [DESPM(3,4,3), diethylspermine] | none of the three polyamine anti-metabolites tested in this model had any effects on the survival | 0 | 5 |  |  |
| FC(F)(F)CNCCCNCCCCNCCCNCC(F)(F)F [FDESPM, Di-β,β,β-trifluoroethylspermine] |  | 40 | 7 | some anti-arrhythmic prophylactic behavior | animals surviving ([2]; DOCA/isoproterenol-treated rats, prophylaxis, dose not given): 40% |
| C(CNC1CCNCC1)CNC1CCNCC1 [PIP(3,3,3)] | nor was it found to be active in this model | 0 | 5 |  |  |
| c1cc(NCCCNc2ccncc2)ccn1 [PYR(3,3,3)] |  | 100 | 2 | presented with anti-arrhythmic properties; also recorded: performed best | % SURVIVAL ([2]; dose 14 μmol/kg s.c.): 40%; ARRHYTHMIA (number of animals) ([2]; dose 14 μmol/kg s.c.): 5; % SURVIVAL ([2]; dose 28 μmol/kg s.c.): 40%; ARRHYTHMIA (number of animals) ([2]; dose 28 μmol/kg s.c.): 5; % SURVIVAL ([2]; dose 59 μmol/kg s.c.): 60%; ARRHYTHMIA (number of animals) ([2]; dose 59 μmol/kg s.c.): 4; effects on blood pressure and heart rate [4]: No appreciable effects on blood pressure and heart rate; EKG pattern after treatment in reversal experiment [1]: reverted to a normal appearance; evidence of ischemia in EKG in reversal experiment [1]: little to no evidence of ischemia |
| c1cc(NCCCCNc2ccncc2)ccn1 [PYR(3,4,3)] |  | 60 | 2 | presented with anti-arrhythmic properties | % SURVIVAL ([2]; dose 59 μmol/kg s.c.): 60%; ARRHYTHMIA (number of animals) ([2]; dose 59 μmol/kg s.c.): 2; % SURVIVAL ([2]; dose 231 μmol/kg s.c.): 80%; ARRHYTHMIA (number of animals) ([2]; dose 231 μmol/kg s.c.): 2 |
| c1cc(CNCCCCNCc2ccncc2)ccn1 [PYR(4,4,4)] |  | 0 | 5 | presented with anti-arrhythmic properties | % SURVIVAL ([2]; dose 231 μmol/kg s.c.): 40%; ARRHYTHMIA (number of animals) ([2]; dose 231 μmol/kg s.c.): 2 |
| NCCCCN [Putrescine(4), Putrescine, reference compound] | no effect on survival | 0 | 5 |  | % SURVIVAL ([2]; dose 1240 μmol/kg s.c.): 0%; ARRHYTHMIA (number of animals) ([2]; dose 1240 μmol/kg s.c.): 5; % SURVIVAL ([2]; dose 1861 μmol/kg s.c.): 0%; ARRHYTHMIA (number of animals) ([2]; dose 1861 μmol/kg s.c.): 5 |

Reference: US20020045669A1, “Anti-arrhythmic composition and methods of treatment” (priority 2000, published 2002)
